Measurements published in patent US20190083521A1, “COMBINATION THERAPY FOR TREATING CANCER” (Epizyme, Inc., priority 2014, published 2019).

Columns and labels:
Test in all cases: Example 7 retest: EPZ-5676 pre-treatment, second compound 72 h, Cell Titer Glo, growth inhibition
MOLM-13 (MLL-AF9) cells = assay type: cell-based, human; set-up: GI100: unit not given here; conditions: MOLM-13 (MLL-AF9); for GI50: Homo sapiens; for GI50 / GI100 / Result (combination with EPZ-5676): Ras mutation status: None known; for GI50 / GI100: second compound, 72 h; for Combination result with EPZ-5676, Retest: 150 nM EPZ-5676 pre-treatment vs DMSO
Method: (§1) Cells were then treated with a second compound for 72 hours. After this time, plates were developed for endpoint analysis using Cell Titer Glo to measure ATP content, which is used as an indicator of cell viability.
(§2) “N/D” means the GI100 of the second compound could not be determined for both conditions and “-” means not tested.
(§3) Growth Inhibition (GI) as a measure of cell viability: The cell viability of vehicle was measured at the time of dosing the second agent (T0) and after seventy-two hours (T72). […] A GI 200% represents complete death of all cells in the culture well. Compounds reaching an activity plateau of GI 200% are considered cytotoxic. GI is calculated by applying the following test and equation: […]

SKM-1 (non-MLLr) cells = assay type: cell-based, human; set-up: GI100: unit not given here; conditions: SKM-1 (non-MLLr); for Combination result with EPZ-5676, Retest: 300 nM EPZ-5676 pre-treatment vs DMSO; for Result (combination with EPZ-5676) / GI50 / GI100: KRAS K117N (homo); for GI50 / GI100: second compound, 72 h
Method: as §1, §2, §3

[1] = tested on: OCI-AML-4 (MLL-ENL) cells; assay type: cell-based; conditions: OCI-AML-4 (MLL-ENL); for Combination result with EPZ-5676, Retest: 300 nM EPZ-5676 pre-treatment vs DMSO; for Result (combination with EPZ-5676) / GI50 / GI100: NRAS Q61R (het); for GI50 / GI100: second compound, 72 h
Method: as §1, §2, §3

THP-1 (MLL-AF9) cells = assay type: cell-based; set-up: GI100: unit not given here; conditions: NRAS G12D
Method: as §1, with “Cells were split using EPZ-5676 or DMSO containing growth media and further incubated for an additional 3-day pre-treatment time. Cells were finally seeded in growth media containing EPZ-5676 or DMSO in 96-well plates. Cells” for “Cells”
as §2
as §3, with “(T72). A GI reading of 0% represents no growth inhibition—cells treated with test compound as compared to T72 vehicle signals were measured.” for “(T72).”

ML-2 (MLL-AF6) cells = assay type: cell-based; set-up: GI100: unit not given here; conditions: ML-2 (MLL-AF6), KRAS A146T (het); for GI50 / GI100: second compound, 72 h
Method: as §1, §2, §3

RS4-11 (MLL-AF4) cells = assay type: cell-based; set-up: GI100: unit not given here; conditions: RS4-11 (MLL-AF4), Ras mutation status: None known, second compound, 72 h; for GI50: Homo sapiens
Method: as §1, §2, §3

Row | GI50 (MOLM-13 (MLL-AF9) cells) [nM] | GI50 (SKM-1 (non-MLLr) cells) [nM] | GI50 [1] [nM] | GI50 (THP-1 (MLL-AF9) cells) [nM] | GI50 (RS4-11 (MLL-AF4) cells) [nM] | Structure (SMILES) | GI100 (MOLM-13 (MLL-AF9) cells) | Combination result with EPZ-5676, Retest (SKM-1 (non-MLLr) cells) | Result (combination with EPZ-5676) (SKM-1 (non-MLLr) cells) | GI100 (SKM-1 (non-MLLr) cells) | Combination result with EPZ-5676, Retest [1] | Result (combination with EPZ-5676) [1] | GI100 [1] | GI100 (THP-1 (MLL-AF9) cells) | GI50 (ML-2 (MLL-AF6) cells) [nM] | GI100 (ML-2 (MLL-AF6) cells) | GI100 (RS4-11 (MLL-AF4) cells) | Combination result with EPZ-5676, Retest (MOLM-13 (MLL-AF9) cells) | Result (combination with EPZ-5676) (MOLM-13 (MLL-AF9) cells) | Result (combination with EPZ-5676) (ML-2 (MLL-AF6) cells)
1 | 3080 | 270 | 904 | 2850 | 1300 | Cn1nccc1Nc1nccc(-c2ccn([C@H](CO)c3ccc(Cl)c(F)c3)c(=O)c2)n1 [GDC0994] | 4.26 | Synergy (considered synergistic if the GI100 (Growth inhibition 100) value of the second compound decreased by 2-fold or more when EPZ-5676 was added as compared to the DMSO control) | Synergy (considered synergistic if the GI100 (Growth inhibition 100) value of the second compound decreased by 2-fold or more when EPZ-5676 was added as compared to the DMSO control) | 1.84 | Synergy (considered synergistic if the GI100 (Growth inhibition 100) value of the second compound decreased by 2-fold or more when EPZ-5676 was added as compared to the DMSO control) | Synergy (considered synergistic if the GI100 (Growth inhibition 100) value of the second compound decreased by 2-fold or more when EPZ-5676 was added as compared to the DMSO control) | 3.068 | >10 | 590 | 2.55 | 2.505 | – | – | –
2 | 1670 | 440 | 2100 | 810 | > 10000 | CC(C)Nc1cc(-c2c[nH]c(C(=O)N[C@H](CO)c3cccc(Cl)c3)c2)c(Cl)cn1 [Ulixertinib] | 3.96 | Synergy (considered synergistic if the GI100 (Growth inhibition 100) value of the second compound decreased by 2-fold or more when EPZ-5676 was added as compared to the DMSO control) | Synergy (considered synergistic if the GI100 (Growth inhibition 100) value of the second compound decreased by 2-fold or more when EPZ-5676 was added as compared to the DMSO control) | 1.500 | Synergy (considered synergistic if the GI100 (Growth inhibition 100) value of the second compound decreased by 2-fold or more when EPZ-5676 was added as compared to the DMSO control) | Synergy (considered synergistic if the GI100 (Growth inhibition 100) value of the second compound decreased by 2-fold or more when EPZ-5676 was added as compared to the DMSO control) | – | – | 630 | 2.711 | >10 | Synergy (considered synergistic if the GI100 (Growth inhibition 100) value of the second compound decreased by 2-fold or more when EPZ-5676 was added as compared to the DMSO control) | Synergy (considered synergistic if the GI100 (Growth inhibition 100) value of the second compound decreased by 2-fold or more when EPZ-5676 was added as compared to the DMSO control) | Synergy (considered synergistic if the GI100 (Growth inhibition 100) value of the second compound decreased by 2-fold or more when EPZ-5676 was added as compared to the DMSO control)
3 | 720 | 10 | 59 | 90 | > 10000 | Cn1cnc2c(F)c(Nc3ccc(Br)cc3F)c(C(=O)NOCCO)cc21 [Binimetinib (MEK-162), Binimetinib] | 3.96 | Synergy (considered synergistic if the GI100 (Growth inhibition 100) value of the second compound decreased by 2-fold or more when EPZ-5676 was added as compared to the DMSO control) | Synergy (considered synergistic if the GI100 (Growth inhibition 100) value of the second compound decreased by 2-fold or more when EPZ-5676 was added as compared to the DMSO control) | 0.07 | Synergy (considered synergistic if the GI100 (Growth inhibition 100) value of the second compound decreased by 2-fold or more when EPZ-5676 was added as compared to the DMSO control) | Synergy (considered synergistic if the GI100 (Growth inhibition 100) value of the second compound decreased by 2-fold or more when EPZ-5676 was added as compared to the DMSO control) | 1.504 | >10 | 30 | 0.50 | >10 | Synergy (considered synergistic if the GI100 (Growth inhibition 100) value of the second compound decreased by 2-fold or more when EPZ-5676 was added as compared to the DMSO control) | Synergy (considered synergistic if the GI100 (Growth inhibition 100) value of the second compound decreased by 2-fold or more when EPZ-5676 was added as compared to the DMSO control) | Synergy (considered synergistic if the GI100 (Growth inhibition 100) value of the second compound decreased by 2-fold or more when EPZ-5676 was added as compared to the DMSO control)
